{"source": "patent US20220275376A1", "about": "“TARGETING SLC38A2 IN PANCREATIC CANCER” (New York University, priority 2019, published 2022)", "key": {"PANC1 cells [1]": {"test_system": "PANC1 cells", "assay": "Intracellular alanine levels in drug-treated PANC1 cells (GC-MS)", "type": "cell-based, human", "details": "24 hours, PXT 10 μM, DPM 10, racemic FLX 10 or 25 μM, vs vehicle (DMSO)", "experimental": "(A) Western blot depicting SLC38A2 levels in PANC1 cells engineered to express SLC38A2 under control of doxycycline. Withdrawal of doxycycline results in a significant depletion in SLC38A2 levels after 24 hours.\nFluvoxamine (FVX), fluoxetine (FLX), paroxetine (PXT), sertindole (SND), and blonanserin (BNS) were acquired from Cayman Chemicals. Desipramine (DPM), α-(Methylamino) isobutyric acid (MeAIB), and L-alanine were acquired from Sigma. Stocks were prepared at 10 mM or 7.5 mM (BNS) in DMSO. Cells were treated with vehicle (DMSO) or varying concentrations of drug for indicated time. Conditioned media was collected and centrifuged at 1,000×g to remove cell debris followed by extraction of metabolites. For metabolite extraction, cells were first washed with ice cold 0.9% NaCl to remove media contamination followed by addition of 500 μL methanol (−20° C.) and 200 μL HPLC grade water (4° C.). Cells were scraped and pipeted into glass vials containing 500 μL chloroform (4° C.) and vortexed at 4° C. for 10-15 minutes. Aqueous and inorganic layers were separated by cold centrifugation for 15 minutes. 300 μL of the aqueous layer containing polar metabolites was transferred to sample vials (Agilent 5190-2243) and evaporated using a SpeedVac (Savant Thermo SPD111V). Dried samples were stored at −20° C. and re-evaporated for 5-10 minutes prior to derivatization and GC-MS analysis."}, "SLC38A2": {"target": "T1, SLC38A2 (Homo sapiens, UniProt Q96QD8)", "T1 construct": "expressed in transfected cells; host or cells: HY15549 cells with dox-inducible SNAT2", "T1 sequence (Q96QD8 1-506)": "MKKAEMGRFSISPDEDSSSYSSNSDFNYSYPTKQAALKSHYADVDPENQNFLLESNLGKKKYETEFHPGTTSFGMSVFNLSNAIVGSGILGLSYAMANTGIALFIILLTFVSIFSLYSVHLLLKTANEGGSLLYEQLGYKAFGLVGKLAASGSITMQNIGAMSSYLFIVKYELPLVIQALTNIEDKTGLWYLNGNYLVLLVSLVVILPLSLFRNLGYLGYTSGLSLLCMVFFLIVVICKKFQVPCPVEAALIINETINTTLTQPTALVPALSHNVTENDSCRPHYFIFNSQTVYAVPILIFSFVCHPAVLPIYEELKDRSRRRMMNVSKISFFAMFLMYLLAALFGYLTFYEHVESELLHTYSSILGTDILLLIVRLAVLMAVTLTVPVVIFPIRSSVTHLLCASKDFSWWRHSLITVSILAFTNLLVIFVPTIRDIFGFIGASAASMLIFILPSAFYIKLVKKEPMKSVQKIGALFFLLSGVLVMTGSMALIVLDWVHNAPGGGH", "assay": "SLC38A2 activity measured by MeAIB uptake in HY15549 dox-inducible SNAT2 cells", "type": "cell-based", "details": "for inhibition of MeAIB uptake (intracellular MeAIB levels): 20 μm compound, MeAIB 0.3 mM, 1 hour, vs vehicle (PBS), HY15549 cells expressing dox-inducible SLC38A2/SNAT2", "experimental": "(A) Schematic depicting SLC38A2-dependent update of alanine structural analog, methyl α-aminoisobutyrate (MeAIB). […] (B) Total ion chromatogram (TIC) of HY15549 dox-inducible SNAT2 cells treated with 1 mM MeAIB for 24 hours compared to vehicle (PBS). […] HY15549 dox-inducible SNAT2 cells were cultured with a concentration gradient of MeAIB for 15 minutes (gray circles) or 60 minutes (black squares). (D) Western blot depicting SLC38A2 expression relative to doxycycline after 24 hours culture in HY15549 dox-inducible SNAT2 cells. (E) Intracellular MeAIB levels in HY15549 dox-inducible cells cultured with dox (+SNAT2, left bar) and without dox (KO, right bar) for 24 hours with 1 mM MeAIB. (F) Intracellular MeAIB levels in HY15549 dox-inducible cells cultured with vehicle, paroxetine (PXT, 20 μM), or sertraline (SRT, 20 μm) for 24 hours with 300 μM MeAIB."}, "PANC1 cells [2]": {"test_system": "PANC1 cells", "assay": "Orthotopic xenograft, PANC1 cells", "type": "in vivo, NCr nude mice", "details": "for tumor burden (tumor weight after resection): PANC1 (5×10^5) pooled SLC38A2-deficient cells vs sgTom, 63 days; for tumor initiation: SLC38A2 knockdown PANC1 cells (5×10^5), orthotopic, vs shGFP, 3-D ultrasound, tumor if volume ≥1 mm^3", "experimental": "(§1) (A) SLC38A2 staining in pancreatic tumors derived from the KPC (LSL-Kras^G12D; Trp53^lox/+; p48Cre+) mouse model and normal murine pancreas. Representative fields from KPC (4×, left) and normal pancreas (10×, right) are depicted with scale bars. Arrows indicate instances of punctate SLC38A2 in normal pancreas (right). (B) Representative live cell images of HY19636 (left) and mPSC #1 (right) cells transiently transfected with 3 μg of SLC38A2-GFP (green) overnight and stained with MitoTracker (red) to visualize individual cells; scale bars are indicated in figures. […] Subcutaneous tumors were monitored bi-weekly by caliper measurement and considered formed if length and width were measured to be ≥1 mm each. […] Orthotopic xenografts were monitored by 3-D ultrasound bi-weekly and considered tumors if volume ≥1 mm^3. […] HY19636 (2.5×10^4) or PANC1 (5×10^5) control (sgTom) or pooled SLC38A2-deficient (sgSLC38A2 #1, #3) cells were injected orthotopically, and tumors were weighed following resection after 27 days (HY19636) or 63 days (PANC1). Error bars depict s.e.m. of tumors resected from 9-10 mice.\nFor orthotopic xenograft experiments, PANC1 cells were infected with lentiviral shRNAs or sgRNAs targeting SLC38A2 or GFP/Tomato as a control and selected with puromycin (2 μg/mL) for three days. For syngeneic orthotopic allograft studies, HY19636 cells were infected with lentiviral sgRNAs targeting SLC38A2 or Tomato and selected with puromycin (2 μg/mL) for three days. 500,000 PANC1 cells or […] HY19636 cells were resuspended in 10 μl HBSS and 10 μl growth factor-reduced matrigel (Corning 356231) per injection and kept on ice. Female 7-8 week old NCr nude or C57BL/6J mice were used for xenograft and allograft experiments, respectively. An incision was made near the spleen which was gently removed from the peritoneal space to expose the pancreas. The 20 μL cell:matrigel suspension was slowly injected into the tail of the exposed pancreas using either a Hamilton or insulin syringe (BD 324702). After injection, the needle was held in place by tweezers briefly to allow the matrigel to polymerize before gently removing the needle and re-introducing the spleen and pancreas into the animal. The peritoneum was sutured and the wound was closed with surgical staples. Buprenorphine was administered by intraperitoneal injection and immediately after surgery and every 12 hours for 48 hours.\nAfter injection, all mice were allowed to recover from surgery for five days before screening for tumor initiation by non-invasive 3-D ultrasound imaging (VisualSonics Vevo 770) twice a week under anesthesia using 1-3% isoflurane via nose cone. Tumor initiation was considered if volume ≥1 mm^3 and sustained or increased in volume over the course of the experiment. […]"}, "HY19636 cells": {"test_system": "HY19636 cells", "assay": "Orthotopic syngeneic allograft, HY19636 cells", "type": "in vivo, C57BL/6J mice", "details": "HY19636 (2.5×10^4) pooled SLC38A2-deficient cells vs sgTom, 27 days", "experimental": "as §1\nFor orthotopic xenograft experiments, PANC1 cells were infected with lentiviral shRNAs or sgRNAs targeting SLC38A2 or GFP/Tomato as a control and selected with puromycin (2 μg/mL) for three days. […]"}, "PANC1 cells [3]": {"test_system": "PANC1 cells", "assay": "Subcutaneous xenograft tumor initiation, PANC1 cells co-injected with hPSC #1 cells", "type": "in vivo, NCr nude mice", "details": "SLC38A2 knockdown PANC1 cells (2×10^5) co-injected with hPSC #1 cells (1×10^6), vs shGFP; tumor if length and width ≥1 mm", "experimental": "(A) SLC38A2 staining in pancreatic tumors derived from the KPC (LSL-Kras^G12D; Trp53^lox/+; p48Cre+) mouse model and normal murine pancreas. Representative fields from KPC (4×, left) and normal pancreas (10×, right) are depicted with scale bars. Arrows indicate instances of punctate SLC38A2 in normal pancreas (right). (B) Representative live cell images of HY19636 (left) and mPSC #1 (right) cells transiently transfected with 3 μg of SLC38A2-GFP (green) overnight and stained with MitoTracker (red) to visualize individual cells; scale bars are indicated in figures. […] Subcutaneous tumors were monitored bi-weekly by caliper measurement and considered formed if length and width were measured to be ≥1 mm each. […] Orthotopic xenografts were monitored by 3-D ultrasound bi-weekly and considered tumors if volume ≥1 mm^3. […]\nFor subcutaneous co-injection tumor initiation studies, PANC1 cells were infected with lentiviral shRNAs targeting SLC38A2 or GFP as a control shRNA and selected with puromycin (2 μg/mL) for three days. […] Tumor initiation was monitored two to three times per week by caliper measurement. Tumor initiation was considered if length and width were measured to be ≥1 mm each."}}, "data": [{"molecule": "CNCCC(Oc1ccc(C(F)(F)F)cc1)c1ccccc1", "note": "(racemic) [fluoxetine]", "values": [{"measurement": "reduction of intracellular alanine levels", "setting": "PANC1 cells [1]", "result": "~50", "unit": "%"}]}, {"molecule": "CNC(C)(C)C(=O)O", "note": "[MeAIB, α-(Methylamino) isobutyric acid]", "values": [{"measurement": "Km", "setting": "SLC38A2; HY15549 dox-inducible SNAT2 cells, MeAIB concentration gradient, 15 or 60 minutes, read-out: Km of MeAIB uptake (Michaelis-Menten kinetics)", "result": "~3.5", "unit": "mM"}]}, {"molecule": "CNCCCN1c2ccccc2CCc2ccccc21", "note": "[desipramine]", "values": [{"measurement": "reduction of intracellular alanine levels", "setting": "PANC1 cells [1]", "result": "~50", "unit": "%"}]}, {"molecule": "Fc1ccc([C@@H]2CCNC[C@H]2COc2ccc3c(c2)OCO3)cc1", "note": "[paroxetine]", "values": [{"measurement": "inhibition of MeAIB uptake (intracellular MeAIB levels)", "setting": "SLC38A2", "result": "inhibited"}, {"measurement": "reduction of intracellular alanine levels", "setting": "PANC1 cells [1]", "result": "~50", "unit": "%"}]}, {"molecule": "CN[C@H]1CC[C@@H](c2ccc(Cl)c(Cl)c2)c2ccccc21", "note": "[sertraline]", "values": [{"measurement": "inhibition of MeAIB uptake (intracellular MeAIB levels)", "setting": "SLC38A2", "result": "inhibited"}]}, {"molecule": "sgSLC38A2 #1: CRISPR sgRNA targeting SLC38A2, TAATCTGAGCAATGCGATTG (SEQ ID NO:7) (expressed or natural sequence)", "values": [{"measurement": "tumor burden (tumor weight after resection)", "setting": "PANC1 cells [2]", "result": "significantly reduced tumor burden"}, {"measurement": "tumor burden (tumor weight after resection)", "setting": "HY19636 cells", "result": "significantly reduced tumor burden"}]}, {"molecule": "sgSLC38A2 #3: CRISPR sgRNA targeting SLC38A2, TCTTATGCCATGGCTAATAC (SEQ ID NO:8) (expressed or natural sequence)", "values": [{"measurement": "tumor burden (tumor weight after resection)", "setting": "PANC1 cells [2]", "result": "significantly reduced tumor burden"}, {"measurement": "tumor burden (tumor weight after resection)", "setting": "HY19636 cells", "result": "significantly reduced tumor burden"}]}, {"molecule": "shSLC38A2 #1: lentiviral shRNA targeting SLC38A2, GGAGAAGATACTGTGGCAA (SEQ ID NO:2), TRCN0000020243", "values": [{"measurement": "tumor initiation", "setting": "PANC1 cells [2]", "result": "significantly suppressed"}, {"measurement": "tumor initiation", "setting": "PANC1 cells [3]", "result": "significantly suppressed"}]}, {"molecule": "shSLC38A2 #4: lentiviral shRNA targeting SLC38A2, GAATACCAAGAGTTGTTTCTA (SEQ ID NO:3), TRCN0000020241", "values": [{"measurement": "tumor initiation", "setting": "PANC1 cells [2]", "result": "significantly suppressed"}, {"measurement": "tumor initiation", "setting": "PANC1 cells [3]", "result": "significantly suppressed"}]}]}
